Source: patent publication US10640506B2, “Cyclobutyl substituted pyrrolopyridine and pyrrolopyrimidines derivatives as JAK inhibitors” (Incyte Corporation, priority 2010, dated 2020)
Structures can show the parent of a compound that is named as a salt.

Assays:
[1] = target: T1, JAK2 (a.a. 828-1132) (Homo sapiens, UniProt O60674); assay: In vitro JAK kinase assay (HTRF, phosphorylation of biotinylated peptide), JAK2; assay type: biochemical; settings: Table F; 1 mM ATP
T1 construct: JAK2 (a.a. 828-1132); His tag (N)
T1 sequence (O60674 828-1132): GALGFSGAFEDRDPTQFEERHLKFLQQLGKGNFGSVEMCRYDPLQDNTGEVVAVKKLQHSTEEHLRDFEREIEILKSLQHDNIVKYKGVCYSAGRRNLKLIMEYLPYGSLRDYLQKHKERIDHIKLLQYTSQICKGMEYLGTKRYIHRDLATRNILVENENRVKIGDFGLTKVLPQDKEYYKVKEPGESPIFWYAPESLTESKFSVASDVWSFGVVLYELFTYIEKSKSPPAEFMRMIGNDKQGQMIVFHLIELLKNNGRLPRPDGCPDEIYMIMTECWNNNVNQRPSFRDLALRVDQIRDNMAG
Procedure, shortened: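 HTRF detection (Eu-Py20, SA-APC, 40 min) of biotinylated-peptide phosphorylation, following a 1 hour room-temperature reaction quenched with 45 mM EDTA. Enzymes: insect-cell-expressed N-terminal His-tagged JAK1 (837-1142) and JAK2 (828-1132) catalytic domains. Activities reported in ranged categories.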

[2] = target: human JAK1 (a.a. 837-1142) (Homo sapiens, UniProt P23458); assay: In vitro JAK kinase assay (HTRF, phosphorylation of biotinylated peptide), JAK1; assay type: biochemical; settings: Table F; 1 mM ATP
human JAK1 (a.a. 837-1142), sequence (P23458 849-1154): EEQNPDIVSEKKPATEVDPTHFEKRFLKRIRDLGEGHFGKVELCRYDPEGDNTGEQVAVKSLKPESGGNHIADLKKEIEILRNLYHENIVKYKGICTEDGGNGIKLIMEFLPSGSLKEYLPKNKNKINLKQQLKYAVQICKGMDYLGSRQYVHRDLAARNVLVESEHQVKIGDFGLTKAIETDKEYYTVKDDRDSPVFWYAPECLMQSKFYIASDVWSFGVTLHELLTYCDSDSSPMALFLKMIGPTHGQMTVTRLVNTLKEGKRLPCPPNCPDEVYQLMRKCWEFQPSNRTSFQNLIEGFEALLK
Procedure, shortened: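 Phosphorylation of a biotinylated peptide was run at room temperature for 1 hour using the N-terminally His-tagged JAK1 kinase domain (837-1142) from insect cells. After an EDTA stop, Eu-Py20 and SA-APC gave an HTRF read; values are binned potency ranges.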

Structure (SMILES)	IC50 [1] [nM]	IC50 [2] [nM]
CN(CC(F)(F)F)C(=O)N1CCN([C@H]2C[C@](CC#N)(n3cc(-c4ncnc5[nH]ccc45)cn3)C2)CC1 [Example 84, 4-{trans-3-(cyanomethyl)-3-[4-(7H-pyrrolo[2,3-d]pyrimidin-4-yl)-1H-pyrazol-1-yl]cyclobutyl}-N-methyl-N-(2,2,2-trifluoroethyl)piperazine-1-carboxamide]	> 100	25 to 100
CC(C)NC(=O)N1CCN([C@H]2C[C@](CC#N)(n3cc(-c4ncnc5[nH]ccc45)cn3)C2)CC1 [Example 85, 4-{trans-3-(cyanomethyl)-3-[4-(7H-pyrrolo[2,3-d]pyrimidin-4-yl)-1H-pyrazol-1-yl]cyclobutyl}-N-isopropylpiperazine-1-carboxamide]	25 to 100	< 10
N#CC[C@]1(n2cc(-c3ncnc4[nH]ccc34)cn2)C[C@H](N2CCN(C(=O)N[C@H]3CC[C@H](O)CC3)CC2)C1 [Example 86, 4-{trans-3-(cyanomethyl)-3-[4-(7H-pyrrolo[2,3-d]pyrimidin-4-yl)-1H-pyrazol-1-yl]cyclobutyl}-N-(trans-4-hydroxycyclohexyl)piperazine-1-carboxamide]	25 to 100	10 to 25
N#CC[C@]1(n2cc(-c3ncnc4[nH]ccc34)cn2)C[C@H](N2CCN(C(=O)N[C@@H]3CCOC3)CC2)C1 [Example 87, 4-{trans-3-(cyanomethyl)-3-[4-(7H-pyrrolo[2,3-d]pyrimidin-4-yl)-1H-pyrazol-1-yl]cyclobutyl}-N-[(3R)-tetrahydrofuran-3-yl]piperazine-1-carboxamide]	> 100	10 to 25
N#CC[C@]1(n2cc(-c3ncnc4[nH]ccc34)cn2)C[C@H](N2CCN(C(=O)NC3CCCC3)CC2)C1 [Example 90, 4-{trans-3-(cyanomethyl)-3-[4-(7H-pyrrolo[2,3-d]pyrimidin-4-yl)-1H-pyrazol-1-yl]cyclobutyl}-N-cyclopentylpiperazine-1-carboxamide]	10 to 25	< 10
N#CC[C@]1(n2cc(-c3ncnc4[nH]ccc34)cn2)C[C@H](N2CCN(C(=O)N3CC[C@H](O)C3)CC2)C1 [Example 91, {trans-3-(4-{[(3S)-3-hydroxypyrrolidin-1-yl]carbonyl}piperazin-1-yl)-1-[4-(7H-pyrrolo[2,3-d]pyrimidin-4-yl)-1H-pyrazol-1-yl]cyclobutyl}acetonitrile]	> 100	25 to 100
N#CC[C@]1(n2cc(-c3ncnc4[nH]ccc34)cn2)C[C@H](N2CCN(C(=O)NCC3CC3)CC2)C1 [Example 92, 4-{trans-3-(cyanomethyl)-3-[4-(7H-pyrrolo[2,3-d]pyrimidin-4-yl)-1H-pyrazol-1-yl]cyclobutyl}-N-(cyclopropylmethyl)piperazine-1-carboxamide trifluoroacetate salt]	25 to 100	< 10
CC(C)[C@@H](C)NC(=O)N1CCN([C@H]2C[C@](CC#N)(n3cc(-c4ncnc5[nH]ccc45)cn3)C2)CC1 [Example 93, 4-{trans-3-(cyanomethyl)-3-[4-(7H-pyrrolo[2,3-d]pyrimidin-4-yl)-1H-pyrazol-1-yl]cyclobutyl}-N-[(1R)-1,2-dimethylpropyl]piperazine-1-carboxamide]	25 to 100	< 10
CC(C)[C@H](C)NC(=O)N1CCN([C@H]2C[C@](CC#N)(n3cc(-c4ncnc5[nH]ccc45)cn3)C2)CC1 [Example 94, 4-{trans-3-(cyanomethyl)-3-[4-(7H-pyrrolo[2,3-d]pyrimidin-4-yl)-1H-pyrazol-1-yl]cyclobutyl}-N-[(1S)-1,2-dimethylpropyl]piperazine-1-carboxamide]	25 to 100	< 10
N#CC[C@]1(n2cc(-c3ncnc4[nH]ccc34)cn2)C[C@H](N2CCN(C(N)=O)CC2)C1 [Example 95, 4-{trans-3-(cyanomethyl)-3-[4-(7H-pyrrolo[2,3-d]pyrimidin-4-yl)-1H-pyrazol-1-yl]cyclobutyl}piperazine-1-carboxamide]	25 to 100	< 10
C[C@H](NC(=O)N1CCN([C@H]2C[C@](CC#N)(n3cc(-c4ncnc5[nH]ccc45)cn3)C2)CC1)C1CC1 [Example 96, 4-{trans-3-(cyanomethyl)-3-[4-(7H-pyrrolo[2,3-d]pyrimidin-4-yl)-1H-pyrazol-1-yl]cyclobutyl}-N-[(1S)-1-cyclopropylethyl]piperazine-1-carboxamide]	25 to 100	< 10
C[C@@H](NC(=O)N1CCN([C@H]2C[C@](CC#N)(n3cc(-c4ncnc5[nH]ccc45)cn3)C2)CC1)C1CC1 [Example 97, 4-{trans-3-(cyanomethyl)-3-[4-(7H-pyrrolo[2,3-d]pyrimidin-4-yl)-1H-pyrazol-1-yl]cyclobutyl}-N-[(1R)-1-cyclopropylethyl]piperazine-1-carboxamide]	25 to 100	< 10
N#CC[C@]1(n2cc(-c3ncnc4[nH]ccc34)cn2)C[C@H](N2CCN(C(=O)NC3CC3)CC2)C1 [Example 98, 4-{trans-3-(cyanomethyl)-3-[4-(7H-pyrrolo[2,3-d]pyrimidin-4-yl)-1H-pyrazol-1-yl]cyclobutyl}-N-cyclopropylpiperazine-1-carboxamide]	> 100	< 10
N#CC[C@]1(n2cc(-c3ncnc4[nH]ccc34)cn2)C[C@H](N2CCN(C(=O)NC3CCC3)CC2)C1 [Example 99, 4-{trans-3-(cyanomethyl)-3-[4-(7H-pyrrolo[2,3-d]pyrimidin-4-yl)-1H-pyrazol-1-yl]cyclobutyl}-N-cyclobutylpiperazine-1-carboxamide]	25 to 100	< 10
CC(C)(C)CNC(=O)N1CCN([C@H]2C[C@](CC#N)(n3cc(-c4ncnc5[nH]ccc45)cn3)C2)CC1 [Example 100, 4-{trans-3-(cyanomethyl)-3-[4-(7H-pyrrolo[2,3-d]pyrimidin-4-yl)-1H-pyrazol-1-yl]cyclobutyl}-N-(2,2-dimethylpropyl)piperazine-1-carboxamide]	> 100	10 to 25
CC(C)CNC(=O)N1CCN([C@H]2C[C@](CC#N)(n3cc(-c4ncnc5[nH]ccc45)cn3)C2)CC1 [Example 101, 4-{trans-3-(cyanomethyl)-3-[4-(7H-pyrrolo[2,3-d]pyrimidin-4-yl)-1H-pyrazol-1-yl]cyclobutyl}-N-isobutylpiperazine-1-carboxamide]	25 to 100	< 10
CC[C@@H](C)NC(=O)N1CCN([C@H]2C[C@](CC#N)(n3cc(-c4ncnc5[nH]ccc45)cn3)C2)CC1 [Example 102, 4-{trans-3-(cyanomethyl)-3-[4-(7H-pyrrolo[2,3-d]pyrimidin-4-yl)-1H-pyrazol-1-yl]cyclobutyl}-N-[(1R)-1-methylpropyl]piperazine-1-carboxamide]	25 to 100	< 10
CC[C@H](C)NC(=O)N1CCN([C@H]2C[C@](CC#N)(n3cc(-c4ncnc5[nH]ccc45)cn3)C2)CC1 [Example 103, 4-{trans-3-(cyanomethyl)-3-[4-(7H-pyrrolo[2,3-d]pyrimidin-4-yl)-1H-pyrazol-1-yl]cyclobutyl}-N-[(1S)-1-methylpropyl]piperazine-1-carboxamide]	25 to 100	< 10
N#CC[C@]1(n2cc(-c3ncnc4[nH]ccc34)cn2)C[C@@H](N2CCN(C(=O)NC3CCC3)CC2)C1 [Example 104, 4-{cis-3-(cyanomethyl)-3-[4-(7H-pyrrolo[2,3-d]pyrimidin-4-yl)-1H-pyrazol-1-yl]cyclobutyl}-N-cyclobutylpiperazine-1-carboxamide]	> 100	10 to 25
CC[C@@H](C)NC(=O)N1CCN([C@H]2C[C@@](CC#N)(n3cc(-c4ncnc5[nH]ccc45)cn3)C2)CC1 [Example 105, 4-{cis-3-(cyanomethyl)-3-[4-(7H-pyrrolo[2,3-d]pyrimidin-4-yl)-1H-pyrazol-1-yl]cyclobutyl}-N-[(1R)-1-methylpropyl]piperazine-1-carboxamide]	25 to 100	10 to 25
CC[C@H](C)NC(=O)N1CCN([C@H]2C[C@@](CC#N)(n3cc(-c4ncnc5[nH]ccc45)cn3)C2)CC1 [Example 106, 4-{cis-3-(cyanomethyl)-3-[4-(7H-pyrrolo[2,3-d]pyrimidin-4-yl)-1H-pyrazol-1-yl]cyclobutyl}-N-[(1S)-1-methylpropyl]piperazine-1-carboxamide]	> 100	10 to 25
N#CC[C@]1(n2cc(-c3ncnc4[nH]ccc34)cn2)C[C@@H](N2CCN(C(=O)NC3CC3)CC2)C1 [Example 107, 4-{cis-3-(cyanomethyl)-3-[4-(7H-pyrrolo[2,3-d]pyrimidin-4-yl)-1H-pyrazol-1-yl]cyclobutyl}-N-cyclopropylpiperazine-1-carboxamide]	> 100	10 to 25
CC(C)NC(=O)N1CCN([C@H]2C[C@@](CC#N)(n3cc(-c4ncnc5[nH]ccc45)cn3)C2)CC1 [Example 108, 4-{cis-3-(cyanomethyl)-3-[4-(7H-pyrrolo[2,3-d]pyrimidin-4-yl)-1H-pyrazol-1-yl]cyclobutyl}-N-isopropylpiperazine-1-carboxamide]	> 100	10 to 25
N#CC[C@]1(n2cc(-c3ncnc4[nH]ccc34)cn2)C[C@@H](N2CCN(C(=O)NC3CCCC3)CC2)C1 [Example 109, 4-{cis-3-(cyanomethyl)-3-[4-(7H-pyrrolo[2,3-d]pyrimidin-4-yl)-1H-pyrazol-1-yl]cyclobutyl}-N-cyclopentylpiperazine-1-carboxamide]	25 to 100	< 10
CC(C)[C@@H](C)NC(=O)N1CCN([C@H]2C[C@@](CC#N)(n3cc(-c4ncnc5[nH]ccc45)cn3)C2)CC1 [Example 110, 4-{cis-3-(cyanomethyl)-3-[4-(7H-pyrrolo[2,3-d]pyrimidin-4-yl)-1H-pyrazol-1-yl]cyclobutyl}-N-[(1R)-1,2-dimethylpropyl]piperazine-1-carboxamide]	> 100	< 10
